Measurements taken from US10314816B2, “Antimicrobial compounds, compositions and methods of use thereof” (Wisconsin Alumni Research Foundation, priority 2012, dated 2019).

Experiments:
[1] = tested on: E. coli BW25113 ΔtolC; experiment: MIC of DCAP analogs, LB media, macrodilution (CLSI); type: cell-based; conditions: Escherichia coli
Procedure: Luria-Bertani (LB) media (10 g/L tryptone, 10 g/L NaCl, 5 g/L yeast extract, pH 7.0) was used to grow all the strains represented in Tables 5 and 6. All the cultures were grown at 37° C. All the E. coli strains were grown while shaking at 200 rpm and the clinical pathogens were statically incubated. […]

[2] = tested on: C. crescentus strain (MT97); experiment: In vivo screen with C. crescentus strain that expresses MipZ-YFP; type: cell-based, Caulobacter crescentus; conditions: 20 μM in agarose pad; data not shown
Procedure: In vivo screen with a Caulobacter crescentus strain that expresses MipZ-YFP. Hits from in vitro screens were tested for activity in vivo. A C. crescentus strain (MT97) that expresses mipZ-yfp from the native mipZ promoter was used. An overnight culture of MT97 was diluted to an absorbance (λ=600 nm) of ˜0.1; the diluted culture was grown further for at least 1 hour prior to compound treatment. Compounds were mixed with a solution of 1% agarose in M2G media to achieve a final concentration of 20 μM. The cells (1 μL per pad) were transferred on top of the compound-containing agarose pad, and the cell morphology and localization of MipZ-YFP were imaged for a period of 24 hours using epifluorescence microscopy. In between microscopic observations, the inoculated pads were incubated at 30° C. to promote growth.
Hits were further screened for antibacterial activity using a Caulobacter crecentus strain that expresses MipZ-YFP as described in Materials and Methods.

[3] = tested on: E. coli BW25113; experiment: MIC of bacterial growth, macrodilution (Table 2); type: cell-based; conditions: Escherichia coli
Procedure: (§1) Bacterial strains and growth conditions. Luria-Bertani (LB) media (10 g/L tryptone, 10 g/L NaCl, 5 g/L yeast extract, pH 7.2) was used to grow B. subtilis 168, S. aureus FRI100, and P. aeruginosa K1115 strains. For P. aeruginosa PAO1 and K1119 strains and two E. coli BW25113 strains, M8 minimal media (241 mg/L MgSO4, 4 mg/L glucose, 5 mg/L casamino acids, 12.8 g/L Na2HPO4.7H2O, 3 g/L KH2PO4, and 0.5 g/L NaCl) was used. PYE media (2 g/L peptone, 1 g/L yeast extract, 0.8 mM MgSO4, and 0.5 mM CaCl2) was used for culturing C. crescentus cells at 30° C. All cultures were grown at 37° C., except for C. crescentus (30° C.). All cultures were grown while shaking at 200 rpm.
(§2) Determination of the minimum inhibitory concentration (MIC) of bacterial growth. The MIC of various organisms in liquid media was determined using the macrodilution method according to the NCCLS guidelines. For the starting inoculum, cultures were diluted to contain approximately 5×10^5 cells/mL in growth media. To create a two-fold dilution series for the macrodilution technique, each compound was added to the first culture tube (4 mL total volume) at the highest concentration. 2 mL of this culture was diluted into an equal volume of inoculated media (a two-fold dilution). The final volume for each culture was 2 mL.

[4] = tested on: P. aeruginosa K1119; experiment: MIC of bacterial growth, macrodilution (Table 2); type: cell-based; conditions: Pseudomonas aeruginosa
Procedure: as §1, §2

[5] = tested on: P. aeruginosa K1115; experiment: MIC of bacterial growth, macrodilution (Table 2); type: cell-based; conditions: Pseudomonas aeruginosa
Procedure: as §1, §2

[6] = tested on: P. aeruginosa PAO1; experiment: MIC of bacterial growth, macrodilution (Table 2); type: cell-based; conditions: Pseudomonas aeruginosa
Procedure: as §1, §2

[7] = tested on: E. coli BW25113 ΔtolC; experiment: MIC of bacterial growth, macrodilution (Table 2); type: cell-based, Escherichia coli
Procedure: as §1, §2

[8] = tested on: S. typhimurium; experiment: MIC of bacterial growth (Table 2); type: cell-based; conditions: Salmonella enterica; S. typhimurium clinical isolate (Table 2)
Procedure: as §2

[9] = tested on: M. morganii; experiment: MIC of bacterial growth (Table 2); type: cell-based; conditions: Morganella morganii; M. morganii clinical isolate (Table 2)
Procedure: as §2

[10] = tested on: S. boydii; experiment: MIC of bacterial growth (Table 2); type: cell-based; conditions: Shigella boydii; S. boydii clinical isolate (Table 2)
Procedure: as §2

[11] = tested on: A. baumannii; experiment: MIC of bacterial growth (Table 2); type: cell-based; conditions: Acinetobacter baumannii; A. baumannii clinical isolate (Table 2)
Procedure: as §2

OCC(CO)(CO)NCC(O)Cn1c2ccc(Cl)cc2c2cc(Cl)ccc21 (stereo not shown) [DCAP, 2-((3-(3,6-dichloro-9H-carbazol-9-yl)-2-hydroxypropyl)amino)-2-(hydroxymethyl)propane-1,3-diol]
MIC ([1]; BW25113): 20 µM
MIC ([1]; BW25113, read-out: MIC (ΔtolC E. coli)): 20 µM
Antibacterial activity in the MipZ-YFP assay [2]: confirmed as having antibacterial activity
MIC [3]: 80 µM
MIC [4]: 160 µM
MIC [5]: 80 µM
MIC [6]: 160 µM
Reduction of MIC on deleting tolC in E. coli BW25113 ([7]; BW25113 vs BW25113 ΔtolC): 4 fold
MIC ([7]; Escherichia coli, BW25113): 20 µM
MIC [8]: 50 µM
MIC [9]: 200 µM
MIC [10]: 100 µM
MIC [11]: 200 µM
